Assay results reported in patent publication US7846959B2, “Raf modulators and methods of use” (Exelixis, Inc., priority 2004, dated 2010).
Where two headings read alike, the source gives them in different places.

Experiments:
c-Raf = c-Raf (Homo sapiens, UniProt P04049); assay: Luciferase-coupled chemiluminescence kinase assay (ATP consumption), c-Raf; type: biochemical
Method in brief: (§1)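 Pre-incub. kinase […] + cpd, 30 min RT (20 mM Tris pH 7.5, 10 mM MgCl2, 0.03% TX-100, 1 mM DTT). Start w/ ATP, 3 h ambient. Luciferase-luciferin mix added and luminescence read. Total ATP use 25-60%. IC50 derived.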

B-Raf = B-Raf (Homo sapiens, UniProt P15056); assay: Luciferase-coupled chemiluminescence kinase assay (ATP consumption), B-Raf; type: biochemical
Sequence of B-Raf (P15056 whole entry): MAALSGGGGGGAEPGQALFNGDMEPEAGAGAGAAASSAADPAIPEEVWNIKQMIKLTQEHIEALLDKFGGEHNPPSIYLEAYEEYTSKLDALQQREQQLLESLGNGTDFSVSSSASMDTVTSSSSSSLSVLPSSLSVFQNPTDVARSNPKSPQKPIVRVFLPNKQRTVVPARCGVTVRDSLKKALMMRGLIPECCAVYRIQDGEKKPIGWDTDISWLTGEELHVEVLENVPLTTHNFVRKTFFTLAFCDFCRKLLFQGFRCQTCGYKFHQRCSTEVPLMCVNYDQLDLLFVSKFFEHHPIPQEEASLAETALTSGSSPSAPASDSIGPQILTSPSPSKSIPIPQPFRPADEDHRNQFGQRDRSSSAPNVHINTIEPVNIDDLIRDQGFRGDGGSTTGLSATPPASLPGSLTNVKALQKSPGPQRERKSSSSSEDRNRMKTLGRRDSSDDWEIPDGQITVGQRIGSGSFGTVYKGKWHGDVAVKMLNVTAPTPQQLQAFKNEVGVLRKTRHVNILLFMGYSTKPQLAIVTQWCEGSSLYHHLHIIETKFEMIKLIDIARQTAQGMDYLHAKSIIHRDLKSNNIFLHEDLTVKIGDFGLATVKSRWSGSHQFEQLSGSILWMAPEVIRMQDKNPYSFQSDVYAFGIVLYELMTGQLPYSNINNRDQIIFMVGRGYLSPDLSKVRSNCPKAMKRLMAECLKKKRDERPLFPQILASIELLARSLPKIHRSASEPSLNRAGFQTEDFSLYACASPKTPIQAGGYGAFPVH
Method in brief: as §1

[1] = read-out: cRaf-1 (inhibition indicated as IC50)
[2] = read-out: bRaf (inhibition indicated as IC50)

Sequence of c-Raf (P04049 whole entry): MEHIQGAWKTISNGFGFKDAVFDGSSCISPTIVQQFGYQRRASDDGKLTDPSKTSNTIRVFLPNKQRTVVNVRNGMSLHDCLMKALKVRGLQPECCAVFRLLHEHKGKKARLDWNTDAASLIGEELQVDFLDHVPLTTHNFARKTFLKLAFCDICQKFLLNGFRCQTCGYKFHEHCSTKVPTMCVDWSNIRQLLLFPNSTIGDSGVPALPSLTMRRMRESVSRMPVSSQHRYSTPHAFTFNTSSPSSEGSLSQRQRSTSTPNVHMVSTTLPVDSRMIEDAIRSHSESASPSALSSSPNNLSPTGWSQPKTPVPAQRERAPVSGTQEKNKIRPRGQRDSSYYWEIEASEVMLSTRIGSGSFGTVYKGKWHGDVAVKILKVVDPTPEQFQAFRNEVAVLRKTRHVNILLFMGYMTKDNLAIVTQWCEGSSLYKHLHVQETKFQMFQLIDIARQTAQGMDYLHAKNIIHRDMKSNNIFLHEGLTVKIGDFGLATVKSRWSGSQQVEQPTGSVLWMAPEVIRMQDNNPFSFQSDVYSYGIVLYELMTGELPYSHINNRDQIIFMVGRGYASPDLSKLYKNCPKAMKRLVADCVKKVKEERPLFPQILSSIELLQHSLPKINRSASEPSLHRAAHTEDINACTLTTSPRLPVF

Row | SMILES | IC50 (c-Raf; read-out: cRaf-1 IC50) [nM] | IC50 (B-Raf; read-out: bRaf IC50) [nM] | IC50 (c-Raf; [1]) [nM] | IC50 (B-Raf; [2]) [nM]
1 | O=C(Nc1nc2ccc(C3(O)c4ccccc4C(=O)N3Cc3ccccc3)cc2[nH]1)C1CC1(F)F (stereo not shown) [Entry 259, 2,2-difluoro-N-{6-[1-hydroxy-3-oxo-2-(phenylmethyl)-2,3-dihydro-1H-isoindol-1-yl]-1H-benzimidazol-2-yl}cyclopropanecarboxamide] | < 100 | < 100 |  | 
2 | CCNC(=O)Nc1nc2ccc(C3(O)c4ccccc4C(=O)N3c3ccc(F)cc3)cc2[nH]1 (stereo not shown) [Entry 260, N-ethyl-N′-{6-[2-(4-fluorophenyl)-1-hydroxy-3-oxo-2,3-dihydro-1H-isoindol-1-yl]-1H-benzimidazol-2-yl}urea] | < 100 | < 100 |  | 
3 | COC(=O)Nc1nc2cc(C3(O)c4ccccc4C(=O)N3c3cccc(N)c3)ccc2[nH]1 (stereo not shown) [Entry 261, methyl {5-[2-(3-aminophenyl)-1-hydroxy-3-oxo-2,3-dihydro-1H-isoindol-1-yl]-1H-benzimidazol-2-yl}carbamate] | < 100 | < 100 |  | 
4 | O=C(CCCOCc1ccccc1)Nc1nc2cc(C3(O)c4ccccc4C(=O)N3Cc3ccccc3)ccc2[nH]1 (stereo not shown) [Entry 262, N-{5-[1-hydroxy-3-oxo-2-(phenylmethyl)-2,3-dihydro-1H-isoindol-1-yl]-1H-benzimidazol-2-yl}-4-[(phenylmethyl)oxy]butanamide] | < 100 | < 100 |  | 
5 | O=C(CCCN1CCCCC1)Nc1nc2cc(C3(O)c4ccccc4C(=O)N3Cc3ccccc3)ccc2[nH]1 (stereo not shown) [Entry 263, N-{5-[1-hydroxy-3-oxo-2-(phenylmethyl)-2,3-dihydro-1H-isoindol-1-yl]-1H-benzimidazol-2-yl}-4-piperidin-1-ylbutanamide] | < 100 | < 100 |  | 
6 | CN1CCN(CCCC(=O)Nc2nc3cc(C4(O)c5ccccc5C(=O)N4Cc4ccccc4)ccc3[nH]2)CC1 (stereo not shown) [Entry 264, N-{5-[1-hydroxy-3-oxo-2-(phenylmethyl)-2,3-dihydro-1H-isoindol-1-yl]-1H-benzimidazol-2-yl}-4-(4-methylpiperazin-1-yl)butanamide] | < 100 | < 100 |  | 
7 | CCCC(=O)Nc1nc2ccc(C3(O)c4ccccc4C(=O)N3c3ccc(F)cc3)cc2[nH]1 (stereo not shown) [Entry 265, N-{6-[2-(4-fluorophenyl)-1-hydroxy-3-oxo-2,3-dihydro-1H-isoindol-1-yl]-1H-benzimidazol-2-yl}butanamide] | < 100 | < 100 |  | 
8 | COC(=O)Nc1nc2ccc(C3(O)c4cc(Cl)c(Cl)cc4C(=O)N3c3cccc(Br)c3)cc2[nH]1 (stereo not shown) [Entry 266, methyl {6-[2-(3-bromophenyl)-5,6-dichloro-1-hydroxy-3-oxo-2,3-dihydro-1H-isoindol-1-yl]-1H-benzimidazol-2-yl}carbamate] | 1000 to 10000 | 1000 to 10000 |  | 
9 | COC(=O)Nc1nc2cc(C3(O)c4ccccc4C(=O)N3c3cccc(N(C)c4ccccc4)c3)ccc2[nH]1 (stereo not shown) [Entry 267, methyl [5-(1-hydroxy-2-{3-[methyl(phenyl)amino]phenyl}-3-oxo-2,3-dihydro-1H-isoindol-1-yl)-1H-benzimidazol-2-yl]carbamate] | < 100 | < 100 |  | 
10 | COC(=O)Nc1nc2cc(C3(O)c4ccccc4C(=O)N3S(=O)(=O)c3ccccc3)ccc2[nH]1 (stereo not shown) [Entry 268, methyl {5-[1-hydroxy-3-oxo-2-(phenylsulfonyl)-2,3-dihydro-1H-isoindol-1-yl]-1H-benzimidazol-2-yl}carbamate] |  |  | 1000 to 10000 | 1000 to 10000
11 | COC(=O)Nc1nc2cc(C(=O)c3ccccc3NC(=O)Nc3ccccc3)ccc2[nH]1 [Entry 269, methyl {5-[(2-{[(phenylamino)carbonyl]amino}phenyl)carbonyl]-1H-benzimidazol-2-yl}carbamate] |  |  | 100 to 1000 | 100 to 1000
12 | COC(=O)Nc1nc2cc(C(=O)c3ccccc3NC(=O)OCc3ccccc3)ccc2[nH]1 [Entry 270, methyl (5-{[2-({[(phenylmethyl)oxy]carbonyl}amino)pheny]carbonyl}-1H-benzimidazol-2-yl)carbamate] |  |  | 1000 to 10000 | 1000 to 10000
13 | COC(=O)Nc1nc2cc(C(=O)c3ccccc3C(=O)NNc3ccccc3)ccc2[nH]1 [Entry 271, methyl [5-({2-[(2-phenylhydrazino)carbonyl]phenyl}carbonyl)-1H-benzimidazol-2-yl]carbamate] |  |  | 100 to 1000 | 100 to 1000
14 | COC(=O)Nc1nc2cc(C(=O)c3ccccc3C(=O)NOc3ccccc3)ccc2[nH]1 [Entry 272, methyl {5-[(2-{[(phenyloxy)amino]carbonyl}phenyl)carbonyl]-1H-benzimidazol-2-yl}carbamate] |  |  | < 100 | < 100
15 | CC#CCOC(=O)Nc1nc2cc(C3(O)c4ccccc4C(=O)N3c3ccc(F)cc3)ccc2[nH]1 (stereo not shown) [Entry 273, but-2-yn-1-yl {5-[2-(4-fluorophenyl)-1-hydroxy-3-oxo-2,3-dihydro-1H-isoindol-1-yl]-1H-benzimidazol-2-yl}carbamate] |  |  | < 100 | < 100
16 | O=C(CCN1CCCCC1)Nc1nc2cc(C3(O)c4ccccc4C(=O)N3Cc3ccccc3)ccc2[nH]1 (stereo not shown) [Entry 274, N-{5-[1-hydroxy-3-oxo-2-(phenylmethyl)-2,3-dihydro-1H-isoindol-1-yl]-1H-benzimidazol-2-yl}-3-piperidin-1-ylpropanamide] |  |  | < 100 | < 100
17 | CCC(=O)Nc1nc2ccc(C3(O)c4ccccc4C(=O)N3c3ccc(F)cc3)cc2[nH]1 (stereo not shown) [Entry 275, N-{6-[2-(4-fluorophenyl)-1-hydroxy-3-oxo-2,3-dihydro-1H-isoindol-1-yl]-1H-benzimidazol-2-yl}propanamide] |  |  | < 100 | < 100
18 | C#CCCC(=O)Nc1nc2ccc(C(=O)c3ccccc3C(=O)Nc3ccc(F)cc3)cc2[nH]1 [Entry 276, N-(4-fluorophenyl)-2-{[2-(pent-4-ynoylamino)-1H-benzimidazol-6-yl]carbonyl}benzamide] |  |  | < 100 | < 100
19 | CCN(CC)CCCC(=O)Nc1nc2cc(C3(O)c4ccccc4C(=O)N3Cc3ccccc3)ccc2[nH]1 (stereo not shown) [Entry 277, 4-(diethylamino)-N-{5-[1-hydroxy-3-oxo-2-(phenylmethyl)-2,3-dihydro-1H-isoindol-1-yl]-1H-benzimidazol-2-yl}butanamide] |  |  | < 100 | < 100
20 | O=C(CCCN1CCCC1)Nc1nc2cc(C3(O)c4ccccc4C(=O)N3Cc3ccccc3)ccc2[nH]1 (stereo not shown) [Entry 278, N-{5-[1-hydroxy-3-oxo-2-(phenylmethyl)-2,3-dihydro-1H-isoindol-1-yl]-1H-benzimidazol-2-yl}-4-pyrrolidin-1-ylbutanamide] |  |  | < 100 | < 100
21 | O=C(Nc1nc2ccc(C3(O)c4ccccc4C(=O)N3c3ccc(F)cc3)cc2[nH]1)OCCCN1CCCCC1 (stereo not shown) [Entry 279, 3-piperidin-1-ylpropyl {6-[2-(4-fluorophenyl)-1-hydroxy-3-oxo-2,3-dihydro-1H-isoindol-1-yl]-1H-benzimidazol-2-yl}carbamate] |  |  | < 100 | 100 to 1000
22 | CN1CCN(CCCOC(=O)Nc2nc3ccc(C4(O)c5ccccc5C(=O)N4c4ccc(F)cc4)cc3[nH]2)CC1 (stereo not shown) [Entry 280, 3-(4-methylpiperazin-1-yl)propyl {6-[2-(4-fluorophenyl)-1-hydroxy-3-oxo-2,3-dihydro-1H-isoindol-1-yl]-1H-benzimidazol-2-yl}carbamate] |  |  | < 100 | < 100
23 | COC(=O)Nc1nc2cc(C3c4ccccc4C(=O)N3c3cccc(Br)c3)ccc2[nH]1 (stereo not shown) [Entry 281, methyl {5-[2-(3-bromophenyl)-3-oxo-2,3-dihydro-1H-isoindol-1-yl]-1H-benzimidazol-2-yl}carbamate] |  |  | < 100 | < 100
24 | C#Cc1cccc(N2C(=O)c3ccccc3C2(O)c2ccc3[nH]c(NC(=O)OC)nc3c2)c1F (stereo not shown) [Entry 282, methyl {5-[2-(3-ethynyl-2-fluorophenyl)-1-hydroxy-3-oxo-2,3-dihydro-1H-isoindol-1-yl]-1H-benzimidazol-2-yl}carbamate] |  |  | < 100 | < 100
25 | O=C(Nc1nc2cc(C3(O)c4ccccc4C(=O)N3c3ccc(F)cc3)ccc2[nH]1)OCCN1CCCCC1 (stereo not shown) [Entry 283, 2-piperidin-1-ylethyl {5-[2-(4-fluorophenyl)-1-hydroxy-3-oxo-2,3-dihydro-1H-isoindol-1-yl]-1H-benzimidazol-2-yl}carbamate] |  |  | < 100 | 100 to 1000
26 | COC(=O)Nc1nc2cc(C3(O)c4ccccc4C(=O)N3c3cccc(Cl)c3C)ccc2[nH]1 (stereo not shown) [Entry 284, methyl {5-[2-(3-chloro-2-methylphenyl)-1-hydroxy-3-oxo-2,3-dihydro-1H-isoindol-1-yl]-1H-benzimidazol-2-yl}carbamate] |  |  | < 100 | < 100
27 | COC(=O)Nc1nc2cc(C3(O)c4ccccc4C(=O)N3c3cc(Cl)ccc3C)ccc2[nH]1 (stereo not shown) [Entry 285, methyl {5-[2-(5-chloro-2-methylphenyl)-1-hydroxy-3-oxo-2,3-dihydro-1H-isoindol-1-yl]-1H-benzimidazol-2-yl}carbamate] |  |  | < 100 | < 100
28 | CC(C)(CN1CCCCC1)C(=O)Nc1nc2ccc(C3(O)c4ccccc4C(=O)N3Cc3ccccc3)cc2[nH]1 (stereo not shown) [Entry 286, N-{6-[1-hydroxy-3-oxo-2-(phenylmethyl)-2,3-dihydro-1H-isoindol-1-yl]-1H-benzimidazol-2-yl}-2,2-dimethyl-3-piperidin-1-ylpropanamide] |  |  | 1000 to 10000 | 1000 to 10000
29 | O=C(CCCN1CCCCC1)Nc1nc2cc(C3(O)c4ccccc4C(=O)N3c3ccc(F)cc3)ccc2[nH]1 (stereo not shown) [Entry 287, N-{5-[2-(4-fluorophenyl)-1-hydroxy-3-oxo-2,3-dihydro-1H-isoindol-1-yl]-1H-benzimidazol-2-yl}-4-piperidin-1-ylbutanamide] |  |  | < 100 | < 100
